This note sets out measurements from BindingDB's records for patent US11760761 (Aligos Therapeutics, 2023).

The experiment deals with Programmed cell death 1 ligand/protein 1 (Homo sapiens, UniProt Q9NZQ7). The experiment in a line: PDL1/PD1 Binding Assay. The procedure: Compounds to be tested were serially diluted in DMSO, and further diluted in assay buffer (25 mM Hepes pH 7.4, 150 mM NaCl, 0.005% Tween 20, BSA 0.01%). Diluted compounds were added to the wells with final concentration of DMSO at 1%. PDL1-6×His protein was added to the wells, mixed well with compound. The plates were incubated for 30 min at room temperature. PD1-Fc-Avi-Biotin protein was added to the wells. Final concentration of PDL1 and PD1 protein is 0.3 nM and 2.5 nM, respectively. After a binding time of 30 min at room temperature, Anti-6×His Acceptor beads (final concentration 20 ug/ml) were added to the wells, and the incubation continued for 1 h. Streptavidin Donor beads (final concentration 20 ug/mL) were added at reduced light. The plates were sealed with foil and incubated in the dark for additional 1 h or overnight before reading on an Envision reader.
Sequence of Programmed cell death 1 ligand/protein 1 (Q9NZQ7 whole entry): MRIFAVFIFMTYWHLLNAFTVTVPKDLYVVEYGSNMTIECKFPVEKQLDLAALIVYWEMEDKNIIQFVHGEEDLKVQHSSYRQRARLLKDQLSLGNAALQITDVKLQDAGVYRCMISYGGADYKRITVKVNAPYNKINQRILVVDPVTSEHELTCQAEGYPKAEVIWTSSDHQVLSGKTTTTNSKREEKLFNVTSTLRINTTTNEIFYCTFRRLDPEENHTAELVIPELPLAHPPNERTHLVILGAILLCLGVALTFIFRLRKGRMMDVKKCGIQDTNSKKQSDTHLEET
Sequence of Programmed cell death 1 ligand/protein 1 (Q15116 whole entry, further chain): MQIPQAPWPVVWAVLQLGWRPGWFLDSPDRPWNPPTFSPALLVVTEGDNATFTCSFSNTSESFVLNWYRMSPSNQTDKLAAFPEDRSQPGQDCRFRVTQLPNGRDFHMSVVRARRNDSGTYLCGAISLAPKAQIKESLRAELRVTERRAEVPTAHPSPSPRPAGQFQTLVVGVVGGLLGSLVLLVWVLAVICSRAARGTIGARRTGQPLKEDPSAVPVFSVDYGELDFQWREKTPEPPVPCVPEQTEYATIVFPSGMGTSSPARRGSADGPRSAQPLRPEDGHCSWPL
Turning to `CCOC(=O)CN1CCc2c(cc(-c3cccc(-c4cccc(-c5cnc(CN6CC(O)C6)c(OC)n5)c4Cl)c3Cl)nc2OC)C1` [US11760761, Compound I-1], the IC50 (as a rule, the point on the concentration scale where inhibition reaches its midpoint) was under 10 nM.

In the case of `COc1nc(-c2cccc(-c3cccc(-c4cc5c(c(OC)n4)[C@@H](N4CC(C(=O)O)C4)CC5)c3Cl)c2Cl)cnc1CN1CC(O)C1` [US11760761, Compound H-1], the IC50 is under 10 nM. The result for `COc1nc(-c2cccc(-c3cccc(-c4cc5c(c(OC)n4)[C@H](NC[C@@H]4CCC(=O)N4)CO5)c3Cl)c2Cl)ccc1CNC[C@@H]1CCC(=O)N1` [US11760761, Compound E-6] reads under 10 nM; that for `COc1nc(-c2cccc(-c3cccc(-c4cc5c(c(OC)n4)[C@@H](NC[C@@H]4CCC(=O)N4)CC5)c3Cl)c2Cl)ccc1CNC[C@@H]1CCC(=O)N1` [US11760761, Compound E-1], under 10 nM; that for `COc1nc(-c2cccc(-c3cccc(-c4cc5c(c(OC)n4)[C@@H](NC[C@@H]4CCC(=O)N4)CC5)c3Cl)c2Cl)cc(C)c1CN1CC2(C1)CN(C(C)=O)C2` [US11760761, Compound E-2], under 10 nM. To `COc1nc(-c2cccc(-c3cccc(-c4cc5c(c(OC)n4)CCN(CC(=O)O)C5)c3Cl)c2Cl)cnc1CN1CC(O)C1` [US11760761, Compound J-1] belongs under 10 nM.

For `COc1nc(-c2cccc(-c3cccc(-c4cc5c(c(OC)n4)[C@@H](NC[C@@H]4CCC(=O)N4)CC5)c3Cl)c2Cl)cnc1CN1CC2(CCC(=O)N2)C1` [US11760761, Compound C-1], the IC50 was under 10 nM. To `COc1nc(-c2cccc(-c3cccc(-c4cc5c(c(OC)n4)CCN(C[C@@H]4CCC(=O)N4)C5)c3Cl)c2Cl)cnc1CN1CC2(CCC(=O)N2)C1` [US11760761, Compound K-1] belongs under 10 nM; to `COc1nc(-c2cccc(-c3cccc(-c4cc5c(c(OC)n4)C(N4CCC[C@@H](C(=O)O)C4)CC5)c3Cl)c2Cl)cnc1CN1CC(O)C1` (stereo not given in full) [US11760761, Compound F-1], under 10 nM; to `COc1nc(-c2cccc(-c3cccc(-c4cc5c(c(OC)n4)[C@@H](NC[C@@H]4CCC(=O)N4)CC5)c3Cl)c2Cl)cnc1CN1CC2(C1)CN(C(C)=O)C2` [US11760761, Compound D-1], under 10 nM. The result for `COc1cc(-c2cccc(-c3cccc(-c4cnc(CN5CC6(CCC(=O)N6)C5)c(OC)n4)c3Cl)c2Cl)cc2c1[C@@H](NCC(=O)O)CC2` [US11760761, Compound B-1] reads under 10 nM; that for `COc1nc(-c2cccc(-c3cccc(-c4cc5c(c(OC)n4)[C@H](NC[C@@H]4CCC(=O)N4)CO5)c3Cl)c2Cl)ccc1CN1CC(OC)C1` [US11760761, Compound E-7], under 10 nM; that for `COc1cc(-c2cccc(-c3cccc(-c4cnc(CN5CC6(CCC(=O)N6)C5)c(OC)n4)c3Cl)c2Cl)cc2c1[C@H](NCC(=O)O)CC2` (single isomer, unassigned) [US11760761, Compound B-2], under 10 nM. For `CCOC(=O)C1CN([C@H]2CCc3cc(-c4cccc(-c5cccc(-c6cnc(CN7CC(O)C7)c(OC)n6)c5Cl)c4Cl)nc(OC)c32)C1` [US11760761, Compound G-1], the IC50 is under 10 nM. To `COCCN1CCc2c(cc(-c3cccc(-c4cccc(-c5cnc(CN6CC7(CCC(=O)N7)C6)c(OC)n5)c4Cl)c3Cl)nc2OC)C1` [US11760761, Compound K-2] belongs under 10 nM.
